Measurements: ChEMBL document CHEMBL5634090, “Design of phenothiazine-based cationic amphiphilic derivatives incorporating arginine residues: Potential membrane-active broad-spectrum antimicrobials combating pathogenic bacteria in vitro and in vivo” (Eur J Med Chem, 2023)
In brackets after ≈: the same amount, converted by molar mass. Activity calls are given as the source filed them. No cut-off for these calls is given here.

Assays:
Staphylococcus aureus [1] = assay: Antibacterial activity against Staphylococcus aureus ATCC 29213 in presence of 20 umol/L Fe2+ by broth microdilution method; format: functional
[2] = Selectivity index, ratio of CC50 for cytotoxicity against HEK293 cells to MIC for antibacterial activity against methicillin resistant Staphylococcus aureus NCTC 10442; format: toxicity, cell-based; details: human, read-out: Selectivity Index
[3] = Hemolytic activity in rabbit erythrocytes; format: toxicity, cell-based, Oryctolagus cuniculus, Erythrocyte
Klebsiella pneumoniae [4] = assay: Antibiofilm activity against 24 hrs preformed biofilm in Klebsiella pneumoniae ATCC 10031 assessed as reduction in biofilm viability at 3.125 ug/ml relative to control; format: functional; details: dose 3.125 µg/ml
Staphylococcus aureus [5] = assay: Antibacterial activity against Staphylococcus aureus ATCC 29213 in presence of 19 umol/L Zn2+ by broth microdilution method; format: functional
Klebsiella pneumoniae [6] = assay: Antibacterial activity against Klebsiella pneumoniae ATCC 14581 in presence of 19 umol/L Zn2+ by broth microdilution method; format: functional
[7] = Selectivity index, ratio of CC50 for cytotoxicity against mouse NCTC clone 929 cells to MIC for antibacterial activity against Staphylococcus aureus ATCC 29213; format: toxicity, cell-based; details: read-out: Selectivity Index
Klebsiella pneumoniae [8] = assay: Antibacterial activity against Klebsiella pneumoniae ATCC 10031 in presence of 140 mmol/L Na+ by broth microdilution method; format: functional
Klebsiella pneumoniae [9] = assay: Inhibition of biofilm formation in Klebsiella pneumoniae ATCC 10031 at 3.125 ug/ml by crystal violet staining assay relative to control; format: functional
Klebsiella pneumoniae [10] = assay: Antibacterial activity against Klebsiella pneumoniae ATCC 10031 in presence of 19 umol/L Zn2+ by broth microdilution method; format: functional
Staphylococcus aureus [11] = assay: Antibacterial activity against methicillin resistant Staphylococcus aureus NCTC 10442 in presence of 4.5 mmol/L K+ by broth microdilution method; format: functional
Staphylococcus aureus [12] = assay: Antibacterial activity against methicillin resistant Staphylococcus aureus NCTC 10442 in presence of 140 mmol/L Na+ by broth microdilution method; format: functional
Staphylococcus aureus [13] = assay: Antibacterial activity against methicillin resistant Staphylococcus aureus N315 by microbroth dilution assay; format: functional
[14] = Selectivity index, ratio of CC50 for cytotoxicity against HEK293 cells to MIC for antibacterial activity against Pseudomonas aeruginosa ATCC 9027; format: toxicity, cell-based; details: human, read-out: Selectivity Index
Staphylococcus aureus [15] = assay: Antibacterial activity against Staphylococcus aureus ATCC 29213 assessed as log reduction in bacterial load at 4 times MIC measured after 2 hrs by time kill assay; format: functional
Klebsiella pneumoniae [16] = assay: Inhibition of biofilm formation in Klebsiella pneumoniae ATCC 10031 at 25 ug/ml by crystal violet staining assay relative to control; format: functional
[17] = Selectivity index, ratio of CC50 for cytotoxicity against mouse NCTC clone 929 cells to MIC for antibacterial activity against Escherichia coli ATCC 25922; format: toxicity, cell-based; details: read-out: Selectivity Index
Klebsiella pneumoniae [18] = assay: Antibiofilm activity against 24 hrs preformed biofilm in Klebsiella pneumoniae ATCC 10031 assessed as reduction in biofilm viability at 0.78 ug/ml relative to control; format: functional; details: dose 0.78 µg/ml
Klebsiella pneumoniae [19] = assay: Antibacterial activity against Klebsiella pneumoniae ATCC 10031 by microbroth dilution assay; format: functional
Staphylococcus aureus [20] = assay: Antibacterial activity against Staphylococcus aureus ATCC 29213 in presence of 140 mmol/L Na+ by broth microdilution method; format: functional
[21] = Selectivity index, ratio of CC50 for cytotoxicity against mouse NCTC clone 929 cells to MIC for antibacterial activity against methicillin resistant Staphylococcus aureus N315; format: toxicity, cell-based; details: read-out: Selectivity Index
Klebsiella pneumoniae [22] = assay: Antibacterial activity against Klebsiella pneumoniae ATCC 10031 in presence of 1 mmol/L Mg2+ by broth microdilution method; format: functional
Staphylococcus aureus [23] = assay: Inhibition of biofilm formation in Staphylococcus aureus ATCC 29213 by crystal violet staining assay; format: functional, organism-based; details: dose 0.39-12.5 µg/ml
[24] = Selectivity index, ratio of CC50 for cytotoxicity against HEK293 cells to MIC for antibacterial activity against methicillin resistant Staphylococcus aureus N315; format: toxicity, cell-based; details: human, read-out: Selectivity Index
Staphylococcus aureus [25] = assay: Antibacterial activity against methicillin resistant Staphylococcus aureus N315 in presence of 140 mmol/L Na+ by broth microdilution method; format: functional
Escherichia coli = assay: Antibacterial activity against Escherichia coli ATCC 25922 by microbroth dilution assay; format: functional
Staphylococcus aureus [26] = assay: Inhibition of biofilm formation in Staphylococcus aureus ATCC 29213 at 3.125 ug/ml by crystal violet staining assay relative to control; format: functional
[27] = Cytotoxicity against mouse NCTC clone 929 cells assessed as cell survival rate at 6.25 ug/ml by CCK-8 assay relative to control; format: toxicity, cell-based; details: NCTC clone 929 (L929) cells, at 6.25 µg/mL, read-out: Activity
Pseudomonas aeruginosa [28] = assay: Antibacterial activity against Pseudomonas aeruginosa ATCC 9027 in presence of 19 umol/L Fe2+ by broth microdilution method; format: functional
[29] = Cytotoxicity against HEK293 cells assessed as cell survival rate at 3.125 ug/ml by CCK-8 assay relative to control; format: toxicity, cell-based; details: human, at 3.125 µg/mL, read-out: Activity
Staphylococcus aureus [30] = assay: Antibiofilm activity against 24 hrs preformed biofilm in Staphylococcus aureus ATCC 29213 assessed as reduction in biofilm viability at 3.125 ug/ml relative to control; format: functional; details: dose 3.125 µg/ml
Pseudomonas aeruginosa [31] = assay: Antibacterial activity against Pseudomonas aeruginosa ATCC 9027 in presence of 2.50 mmol/L Ca2+ by broth microdilution method; format: functional
Klebsiella pneumoniae [32] = assay: Antibacterial activity against Klebsiella pneumoniae ATCC 10031 assessed as cell membrane disruption by SYTOX Green assay; format: functional, organism-based
Staphylococcus aureus [33] = assay: Antibacterial activity against Staphylococcus aureus ATCC 29213 assessed as loss in membrane integrity at 8 times MIC incubated for 4 hrs by LIVE/DEAD BacLight bacterial viability assay; format: functional, organism-based; details: Cell membrane
Klebsiella pneumoniae [34] = assay: Inhibition of biofilm formation in Klebsiella pneumoniae ATCC 10031 at 6.25 ug/ml by crystal violet staining assay relative to control; format: functional
[35] = Selectivity index, ratio of CC50 for cytotoxicity against HEK293 cells to MIC for antibacterial activity against Escherichia coli ATCC 25922; format: toxicity, cell-based; details: human, read-out: Selectivity Index
Klebsiella pneumoniae [36] = assay: Antibiofilm activity against 24 hrs preformed biofilm in Klebsiella pneumoniae ATCC 10031 assessed as reduction in biofilm viability at 6.25 ug/ml relative to control; format: functional; details: dose 6.25 µg/ml
[37] = Cytotoxicity against mouse NCTC clone 929 cells assessed as cell survival rate at 12.5 ug/ml by CCK-8 assay relative to control; format: toxicity, cell-based; details: NCTC clone 929 (L929) cells, at 12.5 µg/mL, read-out: Activity
Staphylococcus aureus [38] = assay: Antibacterial activity against methicillin resistant Staphylococcus aureus NCTC 10442 in presence of 20 umol/L Fe3+ by broth microdilution method; format: functional
Staphylococcus aureus [39] = assay: Inhibition of biofilm formation in Staphylococcus aureus ATCC 29213 at 0.39 ug/ml by crystal violet staining assay relative to control; format: functional
Pseudomonas aeruginosa [40] = assay: Antibacterial activity against Pseudomonas aeruginosa ATCC 9027 in presence of 1.00 mmol/L Mg2+ by broth microdilution method; format: functional
[41] = Cytotoxicity against HEK293 cells assessed as cell survival rate at 25 ug/ml by CCK-8 assay relative to control; format: toxicity, cell-based; details: human, at 25 µg/mL, read-out: Activity

SMILES: CCCCCCCN1c2ccccc2Sc2ccc(OCC(=O)N[C@@H](CCCNC(=N)N)C(=O)N[C@@H](CCCNC(=N)N)C(N)=O)cc21
- MIC (Staphylococcus aureus [1]): 1.56 µg/mL
- selectivity ratio [2]: 8
- HC50 [3]: 281 µg/mL
- Activity (Klebsiella pneumoniae [4]): 34.26%
- MIC (Staphylococcus aureus [5]): 1.56 µg/mL
- MIC (Klebsiella pneumoniae [6]): 3.12 µg/mL
- selectivity ratio [7]: 8
- MIC (Klebsiella pneumoniae [8]): 3.12 µg/mL
- inhibition at 3.125 µg/mL (Klebsiella pneumoniae [9]): 73.8%
- MIC (Klebsiella pneumoniae [10]): 6.25 µg/mL
- MIC (Staphylococcus aureus [11]): 1.56 µg/mL
- MIC (Staphylococcus aureus [12]): 1.56 µg/mL
- MIC (Staphylococcus aureus [13]): 1.56 µg/mL (≈ 2.28 µM)
- selectivity ratio [14]: 8
- log(activity) (Staphylococcus aureus [15]): >3
- inhibition at 25 µg/mL (Klebsiella pneumoniae [16]): 96.6%
- selectivity ratio [17]: 8
- Activity (Klebsiella pneumoniae [18]): 82.83%
- MIC (Klebsiella pneumoniae [19]): 3.12 µg/mL (≈ 4.58 µM)
- MIC (Staphylococcus aureus [20]): 1.56 µg/mL
- selectivity ratio [21]: 8
- MIC (Klebsiella pneumoniae [22]): 3.12 µg/mL
- inhibition (Staphylococcus aureus [23]): Dose-Dependent Effect
- selectivity ratio [24]: 8
- MIC (Staphylococcus aureus [25]): 1.56 µg/mL
- MIC (Escherichia coli): 3.12 µg/mL (≈ 4.58 µM)
- inhibition at 3.125 µg/mL (Staphylococcus aureus [26]): 87.2%
- viability at 6.25 ug/ml [27]: 91.2%
- MIC (Pseudomonas aeruginosa [28]): 6.25 µg/mL
- viability at 3.125 ug/ml [29]: 95.4%
- Activity (Staphylococcus aureus [30]): 27.75%
- MIC (Pseudomonas aeruginosa [31]): 6.25 µg/mL
- Activity (Klebsiella pneumoniae [32]): Dose-Dependent Effect
- Activity (Staphylococcus aureus [33]): Active
- inhibition at 6.25 µg/mL (Klebsiella pneumoniae [34]): 90%
- selectivity ratio [35]: 8
- Activity (Klebsiella pneumoniae [36]): 10.44%
- viability at 12.5 ug/ml [37]: 70.8%
- MIC (Staphylococcus aureus [38]): 1.56 µg/mL
- inhibition at 0.39 µg/mL (Staphylococcus aureus [39]): 5.85%
- MIC (Pseudomonas aeruginosa [40]): 6.25 µg/mL
- viability at 25 ug/ml [41]: 74.4%
